Values quoted from earlier work, collected in US20050245613A1, “Use of gaba-b receptor positive modulators in gastro-intestinal disorders” (priority 2002, published 2005).

Experiments:
GERD patients [1] = conditions: long-term recording of esophageal pH
[2] = test system: vagal afferent and efferent fibers
GERD patients [3] = test system: GERD patients

Structure (SMILES): NCC(CC(=O)O)c1ccc(Cl)cc1 (stereo not drawn) [Baclofen]
- esophageal acid exposure (GERD patients [1]): significant reduction in esophageal acid exposure
- frequency of TLESR (healthy subjects): reduces the frequency of TLESR
- frequency of TLESR (ferrets): reduces the frequency of TLESR
- sensitivity of vagal afferent and efferent fibers [2]: reduce the sensitivity of vagal afferent and efferent fibers
- frequency of TLESR (GERD patients [3]): reduces the frequency of TLESR
- frequency of TLESR (dogs): reduces the frequency of TLESR
